Laboratory results taken from patent publication US8343963B2, “Sulfamoyl-phenyl-ureido compounds and their use as medicament” (4SC AG, priority 2009, dated 2013).
Where two headings read alike, the source gives them in different places.

Columns and labels:
[1] = In vitro clearance using human liver microsomes; assay type: in vitro ADME; details: human liver microsomes 0.5 mg/ml, 1 μM compound, 37° C., 0-30 min
Procedure: These experiments were performed at Nikem Research (Via Zambeletti 25; Baranzate, Milan, Italy). Test compounds in duplicate at the final concentration of 1 μM were dissolved in DMSO and pre-incubated for 10 min at 37° C. in phosphate buffer pH 7.4, 3 mM MgCl2, with human liver microsomes at the final concentration of 0.5 mg/ml. After the pre-incubation period, reaction was started by adding the cofactor mixture (NADP, Glc6P, G6P-DH); samples were taken at time 0, 5, 10, 15, 20 and 30 min and added to acetonitrile to quench the metabolic reaction, centrifuged and supernatant analysed and quantified by HPLC/MS. A control sample without cofactors was always added in order to check the chemical stability of test compounds. 7-ethoxycoumarin was added as reference standard. A fixed concentration of verapamil was added in every sample as internal standard for HPLC/MS. The concentration of the remaining compound at different times was determined by HPLC/MS. The rate constant, k (min^−1) derived for the exponential decay equation (peak area vs time) was used to calculate the rate of intrinsic clearance (Cli) of the compounds using the following equations: Cli (μl/min/mg compound)=k×V; where: V (μl/mg compound)=incubation volume/mg compound added. In table 3 the clearance (in vitro metabolic stability) classification was as follows: Cli<10=compound stable; Cli between 10 and 60=low metabolism; Cli between 60 and 600=medium metabolism Cli>600=high metabolism.

[2] = tested on: multiresistant Dd2 strain of Plasmodium falciparum; test: Antiplasmodial activity against Dd2 strain of Plasmodium falciparum ([8-3H]hypoxanthine incorporation); assay type: cell-based; details: 66 h, P. falciparum Dd2, 48 h + 18 h with [8-3H]hypoxanthine, 50% parasite growth inhibition, read-out: Antiplasmodia activity (IC50 class)
Procedure: For the determination of the antiplasmodial activity of the compounds described above, the multiresistant Dd2 strain of Plasmodium falciparum was used. The incorporation of [8-^3H]hypoxanthine into the parasitic nucleic acids was measured. The plasmodia were incubated at 0.3% parasitaemia and an erythrocyte haematocrit of 2.5% in the presence of different concentrations of the compounds in a final volume of 200 μl. The medium employed was RPMI 1640 which contained 10% of heat-treated human serum and 3 mg/l of gentamycin. In the incubations, the concentrations of the compounds varied from 0.001 to 100 μM. After 48 h, each batch was treated with 50 μl of [8-^3H]hypoxanthine (1 mCi/ml) and incubated for a further 18 h. The cells were filtered off, washed and suspended in 20 μl of scintillation fluid. The radioactive hypoxanthine absorbed by the parasites was then quantified using a scintillation counter. The results were presented graphically and the IC50 value was determined using a fitting function. The value IC50, the ‘inhibition constant’, indicates the value in μMol/l at which 50% parasite growth inhibition occurs (R. E. Desjardins, et al., Antimicrobiol. Agent Chemother. 16, pp. 710-718, 1979; J. D. Chulay, et al., Exp. Parasitol. 55, pp. 138-146, 1983).

[3] = Solubility and solubility-range determination in 50 mM phosphate buffer at different pH; assay type: physicochemical; details: aqueous buffer, kinetic from dmso stock, 1% DMSO, 23° C., read-out: Solubility or solubility range
Procedure: The compounds were dissolved in DMSO at a concentration of 20 mg/ml. These stock solutions were further diluted 1:1 with DMSO (50 μl solution+50 μl DMSO) in seven steps. Subsequently, these solutions were diluted 1:100 (5 μl DMSO-stock+495 μl 50 mM phosphate buffer) in all four pH buffers (respectively: pH=4; pH=6; pH=7.4; pH=9) resulting in a final DMSO concentration of 1% in the buffers. These dilutions were vigorously mixed and transferred into 96-well reading plate. The plates were incubated in a shaker (600 rpm) at 23° C. for 24 hours. After that, the contents of the wells were mixed with a pipette and optical density (OD) was recorded at wavelengths of 550 nm; 600 nm; 650 nm and 700 nm in the Tecan Sunrise plate reader. The cut-off OD sum for an undissolved concentration of a compound was defined as follows: Cut off OD sum=mean blank OD+0.050 OD. For the determination of the solubility range, the following rule was applied: OD>cut off=>compound not dissolved at this concentration OD<cut-off=>compound dissolved at this concentration For the determination of the solubility, a titration curve (OD/concentration) was prepared and the concentrations were determined based on the measured OD of the mixture supernatant after centrifugation. The solubility values are given in μg/ml (table 3).

| SMILES | In vitro metabolism as determined from Cli [1] | IC50 [2] | also measured |
| --- | --- | --- | --- |
| CCCCN1CCN(C(=N)c2cccc(NC(=O)Nc3ccc(S(N)(=O)=O)cc3)c2)CC1 [Compound 1, 4-(3-(3-((4-butylpiperazin-1-yl)(imino)methyl)phenyl)ureido)benzenesulfonamide] | low (Cli between 10 and 60=low metabolism) | ≥ 1000 nM | – |
| CCCCN1CCN(C(=N)c2cccc(NC(=O)Nc3ccc(S(=O)(=O)Nc4ccc(S(N)(=O)=O)cc4)cc3)c2)CC1 [Compound 23, 4-(3-(3-((4-butylpiperazin-1-yl)(imino)methyl)phenyl)ureido)-N-(4-sulfamoylphenyl)benzenesulfonamide] | low (Cli between 10 and 60=low metabolism) | 210 to 990 nM | – |
| CCN1CCN(C(=N)c2cccc(NC(=O)Nc3ccc(S(=O)(=O)NCc4ccc(S(N)(=O)=O)cc4)cc3)c2)CC1 [Compound 37, 4-(3-(3-((4-ethylpiperazin-1-yl)(imino)methyl)phenyl)ureido)-N-(4-sulfamoylbenzyl)benzenesulfonamide] | medium (Cli between 60 and 600=medium metabolism) | 20 to 200 nM | – |
| CCCCN1CCN(C(=N)c2cccc(NC(=O)Nc3ccc(S(=O)(=O)N4Cc5ccc(S(N)(=O)=O)cc5C4)cc3)c2)CC1 [Compound 41, 2-(4-(3-(3-((4-butylpiperazin-1-yl)(imino)methyl)phenyl)ureido)phenylsulfonyl)isoindoline-5-sulfonamide] | medium (Cli between 60 and 600=medium metabolism) | 20 to 200 nM | – |
| N=C(c1cccc(NC(=O)Nc2ccc(S(=O)(=O)NCc3ccc(S(N)(=O)=O)cc3)cc2)c1)N1CCOCC1 [Compound 43, 4-(3-(3-(imino (morpholino)methyl)phenyl)ureido)-N-(4-sulfamoylbenzyl)benzenesulfonamide] | medium (Cli between 60 and 600=medium metabolism) | 20 to 200 nM | – |
| N=C(c1cccc(NC(=O)Nc2ccc(S(=O)(=O)NCc3ccc(S(N)(=O)=O)cc3)cc2)c1)N1CCS(=O)(=O)CC1 [Compound 44, 4-(3-(3-((1,1-dioxidothiomorpholino)(imino)methyl)phenyl)ureido)-N-(4-sulfamoylbenzyl)benzenesulfonamide] | – | 20 to 200 nM | solubility at 24 h ([3]; pH 4, 50 mM phosphate buffer): > 200 µg/mL; solubility at 24 h ([3]; pH 6, 50 mM phosphate buffer): > 200 µg/mL; solubility at 24 h ([3]; pH 7.4, 50 mM phosphate buffer): > 200 µg/mL; solubility at 24 h ([3]; pH 9, 50 mM phosphate buffer): > 200 µg/mL |
| CN1CCN(C(=N)c2cccc(NC(=O)Nc3ccc(S(=O)(=O)NCc4ccc(S(N)(=O)=O)cc4)cc3)c2)CC1 [Compound 53, 4-(3-(3-(imino(4-methylpiperazin-1-yl)methyl)phenyl)ureido)-N-(4-sulfamoylbenzyl)benzenesulfonamide] | low (Cli between 10 and 60=low metabolism) | 210 to 990 nM | – |
| CC(C)N1CCN(C(=N)c2cccc(NC(=O)Nc3ccc(S(=O)(=O)NCc4ccc(S(N)(=O)=O)cc4)cc3)c2)CC1 [Compound 54, 4-(3-(3-(imino(4-isopropylpiperazin-1-yl)methyl)phenyl)ureido)-N-(4-sulfamoylbenzyl)benzenesulfonamide] | medium (Cli between 60 and 600=medium metabolism) | 20 to 200 nM | – |
| CCCCCCCN1CCN(C(=N)c2cccc(NC(=O)Nc3ccc(S(=O)(=O)NCc4ccc(S(N)(=O)=O)cc4)cc3)c2)CC1 [Compound 56, 4-(3-(3-((4-heptylpiperazin-1-yl)(imino)methyl)phenyl)ureido)-N-(4-sulfamoylbenzyl)benzenesulfonamide] | – | 20 to 200 nM | – |
| CC(=O)N1CCN(C(=N)c2cccc(NC(=O)Nc3ccc(S(=O)(=O)NCc4ccc(S(N)(=O)=O)cc4)cc3)c2)CC1 [Compound 57, 4-(3-(3-((4-acetylpiperazin-1-yl)(imino)methyl)phenyl)ureido)-N-(4-sulfamoylbenzyl)benzenesulfonamide] | – | 20 to 200 nM | – |
| CCCCC(=O)N1CCN(C(=N)c2cccc(NC(=O)Nc3ccc(S(=O)(=O)NCc4ccc(S(N)(=O)=O)cc4)cc3)c2)CC1 [Compound 59, 4-(3-(3-(imino(4-pentanoylpiperazin-1-yl)methyl)phenyl)ureido)-N-(4-sulfamoylbenzyl)benzenesulfonamide] | – | 20 to 200 nM | – |
| CCOC(=O)N1CCN(C(=N)c2cccc(NC(=O)Nc3ccc(S(=O)(=O)NCc4ccc(S(N)(=O)=O)cc4)cc3)c2)CC1 [Compound 61, ethyl 4-(imino(3-(3-(4-(N-(4-sulfamoylbenzyl)sulfamoyl)phenyl)ureido)phenyl)methyl)piperazine-1-carboxylate] | – | < 20 nM | – |
| CCCOC(=O)N1CCN(C(=N)c2cccc(NC(=O)Nc3ccc(S(=O)(=O)NCc4ccc(S(N)(=O)=O)cc4)cc3)c2)CC1 [Compound 62, propyl 4-(imino(3-(3-(4-(N-(4-sulfamoylbenzyl)sulfamoyl)phenyl)ureido)phenyl)methyl)piperazine-1-carboxylate] | – | < 20 nM | – |
| CCCCN1CCN(C(=N)c2cccc(NC(=O)Nc3ccc(S(=O)(=O)NCc4ccc(S(N)(=O)=O)cc4)cc3)c2)CC1=O [Compound 63, 4-(3-(3-((4-butyl-3-oxopiperazin-1-yl)(imino)methyl)phenyl)ureido)-N-(4-sulfamoylbenzyl)benzenesulfonamide] | medium (Cli between 60 and 600=medium metabolism) | < 20 nM | – |
| CN(C)C(=N)c1cccc(NC(=O)Nc2ccc(S(=O)(=O)NCc3ccc(S(N)(=O)=O)cc3)cc2)c1 [Compound 64, N,N-dimethyl-3-(3-(4-(N-(4-sulfamoylbenzyl)sulfamoyl)phenyl)ureido)benzimidamide] | low (Cli between 10 and 60=low metabolism) | 210 to 990 nM | – |
| N#CCCN1CCN(C(=N)c2cccc(NC(=O)Nc3ccc(S(=O)(=O)NCc4ccc(S(N)(=O)=O)cc4)cc3)c2)CC1 [Compound 65, 4-(3-(3-((4-(2-cyanoethyl)piperazin-1-yl)(imino)methyl)phenyl)ureido)-N-(4-sulfamoylbenzyl)benzene sulfonamide] | medium (Cli between 60 and 600=medium metabolism) | 210 to 990 nM | – |
| N=C(c1cccc(NC(=O)Nc2ccc(S(=O)(=O)NCc3ccc(S(N)(=O)=O)cc3)cc2)c1)N1CCN(CC2OCCO2)CC1 [Compound 67, 4-(3-(3-((4-((1,3-dioxolan-2-yl)methyl)piperazin-1-yl)(imino)methyl)phenyl)ureido)-N-(4-sulfamoylbenzyl)benzene sulfonamide] | – | 20 to 200 nM | – |
| N=C(c1cccc(NC(=O)Nc2ccc(S(=O)(=O)NCc3ccc(S(N)(=O)=O)cc3)cc2)c1)N1CCN(CC2CCCO2)CC1 (stereo not drawn) [Compound 68, 4-(3-(3-(imino(4-((tetrahydrofuran-2-yl)methyl)piperazin-1-yl)methyl)phenyl)ureido)-N-(4-sulfamoylbenzyl)benzene sulfonamide] | – | 20 to 200 nM | – |
| CCCCN1CCN(C(=N)c2ccc(NC(=O)Nc3ccc(S(=O)(=O)NCc4ccc(S(N)(=O)=O)cc4)cc3)cc2)CC1 [Compound 71, 4-(3-(4-((4-butylpiperazin-1-yl)(imino)methyl)phenyl)ureido)-N-(4-sulfamoylbenzyl)benzene sulfonamide] | – | 20 to 200 nM | – |
